According to paper PMC8795568 (Proceedings of the National Academy of Sciences of the …, 2022):

Assays:
several solid tumors = details: trial terminated; cited from earlier work
[1] = test system: NUT midline carcinoma and other solid cancers; details: patients, cited from earlier work
[2] = test system: midline nuclear protein in testis (NUT) carcinoma; details: phase IIb trial, closed; ref NCT02296476; cited from earlier work
[3] = clinical; cited from earlier work
Panc1 cells = experiment: Cell growth assay; format: cell-based, human; details: Panc1, 1 μM each drug, until DMSO cells reached 100% confluence

**Q.** For `CNC(=O)N1N=C(c2ccc(N3CCN(C)CC3)cc2)c2cc(OC)c(OC)cc2C[C@@H]1C` [BAY1238097], which dose-limiting toxicities (several solid tumors) is on record?
**A.** high rates of dose-limiting toxicities at subtherapeutic doses

**Q.** With `CCNC(=O)C[C@@H]1N=C(c2ccc(Cl)cc2)c2cc(OC)ccc2-n2c(C)nnc21` [GSK525762] as the compound, how does the rate of nausea ([1]; adverse effects) read?
**A.** 40%

**Q.** What about the rate of thrombocytopenia ([1]; adverse effects) of the same compound?
**A.** 44%

**Q.** What about the partial responses [1] of the same compound?
**A.** 2 out of 10

**Q.** With `Cc1sc2c(c1C)C(c1ccc(Cl)cc1)=N[C@@H](CC(=O)Nc1ccc(O)cc1)c1nnc(C)n1-2` [MK-8628] as the compound, how does the clinical activity [2] read?
**A.** lack of detectable clinical activity

**Q.** For `COc1cc(OC)c2c(=O)[nH]c(-c3cc(C)c(OCCO)c(C)c3)nc2c1` [RVX000222], which safety [3] is on record?
**A.** improved safety threshold

**Q.** With `COc1ccc(CCc2nc3cc(-c4c(C)noc4C)ccc3n2C[C@H](C)N2CCOCC2)cc1Cl` [SGC-CBP30] as the compound, how does the “cell growth (confluence)” value (Panc1 cells) read?
**A.** marginal effect on cell growth
